Key:
[1] = system: CAR binding to CYP2B6 and CYP3A4 promoter response elements; assay: Chromatin immunoprecipitation (CAR / RNA polymerase II occupancy at promoters); type: cell-based, human
Experimental: FIG. 8B and FIG. 8C show the fold enrichment of CAR at CYP2B6-dNR3 and CYP2B6-PBREM sites, respectively, in the promoter region following the indicated treatment in human primary hepatocytes. […] Protein complexes were cross-linked and chromatin was immunoprecipitated by using anti-CAR antibody or control IgG. CAR occupancy at two separate CYP2B6 promoter regions (dNR3 and PBREM) was determined by performing quantitative RT-PCR assays. Fold-enrichment normalized to IgG control was plotted. Data represent the mean±SD of 3 experiments. *, p<0.01 comparing CITCO treatment to DMSO treatment.
FIG. 9A, FIG. 9B, and FIG. 9C show the fold enrichment of CAR at CYP2B6-dNR3, CYP3A4-XREM, and CYP2B6-dNR3 sites, respectively, in the promoter region following the indicated treatment in human primary hepatocytes or HepG2-hCAR1 cells, as indicated in the figures. Briefly, in FIG. 9A and FIG. […] 9C HepG2-hCAR1 stable cells were treated for […] with DMSO, 1 μM CITCO, 5 μM CINPA1, or 1 μM CITCO+5 μM CINPA1. Protein complexes were cross-linked and chromatin was immunoprecipitated by using anti-CAR antibody, anti-RNA polymerase II (RPol) antibody, or control IgG. CAR or RPol occupancy at the CYP2B6-dNR3 region and CYP3A4-XREM region was determined by performing quantitative RT-PCR assays. Fold-enrichment was normalized to IgG control. Data represent the mean±SD of 3 experiments. *, p<0.001 and #, p<0.01 comparing CITCO to DMSO samples. **, p<0.001 and ##, p<0.01 comparing CITCO+CINPA1 to CITCO samples.
ChIP was performed as described previously (Cherian, M. T., et al. (2012) J. Biol. Chem. 287, 23368-23380). Briefly, human hepatocytes in 6-well plates were maintained for 3-4 days in Williams E medium containing Primary Hepatocyte Maintenance Supplement (Life Technologies), with daily media changes. Nine wells were used for each treatment group. […] The HepG2-hCAR1 stable cells in FIG. 9 were treated with DMSO, 1 μM CITCO, 5 μM CINPA1, or 1 μM CITCO+5 μM CINPA1 for […]. In FIG. 9, the hepatocytes from donor 7 were treated with DMSO, 0.1 μM CITCO, 1 μM CINPA1, or 0.1 μM CITCO+1 μM CINPA1 for 45 min. Proteins were cross-linked with 1% formaldehyde for 10 min. Cell extracts were digested for 10 min with 50 units of micrococcal nuclease (New England Biolabs) at 37° C. and further sonicated to yield sheared DNA fragments having an average length of 200-1000 base pairs. The sonicated samples were pelleted by centrifugation, and the supernatant was diluted 3- to 5-fold with ChIP dilution buffer (0.01% SDS, 1.1% Triton X-100, 1.2 mM EDTA, 16.7 mM Tris-HCl, pH 8.1, 167 mM NaCl, and protease inhibitor cocktail). […] Quantitative RT-PCR assays were performed to determine the change in CAR occupancy at various sites of CAR binding. […]

hCAR1 = target: T1, hCAR1 (Homo sapiens, UniProt Q14994); assay: CAR-mediated CYP3A4-luciferase assay (HepG2 cells transfected with hCAR1); type: cell-based; conditions: 1 μM or 5 μM CINPA1, 24 h
T1 construct: expressed in transfected cells; host or cells: HepG2 (transient transfection)
T1 sequence (Q14994 1-348 isoform Q14994-2): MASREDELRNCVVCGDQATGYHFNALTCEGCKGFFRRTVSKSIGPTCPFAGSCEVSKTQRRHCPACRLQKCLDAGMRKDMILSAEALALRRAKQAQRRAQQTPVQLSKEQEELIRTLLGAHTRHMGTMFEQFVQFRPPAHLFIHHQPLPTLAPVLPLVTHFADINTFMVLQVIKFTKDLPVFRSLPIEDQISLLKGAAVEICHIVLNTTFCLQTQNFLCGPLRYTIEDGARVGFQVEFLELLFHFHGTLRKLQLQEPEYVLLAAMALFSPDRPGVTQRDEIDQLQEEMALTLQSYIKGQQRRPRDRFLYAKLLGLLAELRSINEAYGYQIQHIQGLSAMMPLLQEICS
Experimental: Briefly, HepG2 cells were transiently transfected with plasmids expressing hCAR1, CYP3A4-luc reporter and control plasmid pTK-RL. […] Dual luciferase activity was measured 24 h after treatment using Dual-Glo® luciferase reagent. Renilla luciferase was used to normalize firefly luciferase values and % Luciferase activity was calculated by setting DMSO to 100%. p<0.001, when comparing DMSO to all treatments except 5 μM rifampicin. […] Briefly, HepG2-PXR Clone 1 cells were treated with CINPA1 in a dose-responsive format (40 μM to 2 nM, 1-to-2 dilutions for 10 concentrations) in the presence or absence of 5 μM rifampicin (Rif) for 24 h before luciferase assay using SteadyLite™. % PXR activity was calculated by setting DMSO (negative. control) treated cells to 0% and 5 μM rifampicin (positive. control) treated cells to 100%. GraphPad Prism was used to fit the data into a dose-response stimulation equation to derive IC50 values. […] Briefly, U2OS cells were transiently transfected with plasmids expressing hCAR1, CYP2B6-luc reporter and control plasmid pTK-RL. […] Dual luciferase activity was measured 24 h after treatment. Renilla luciferase was used to normalize firefly luciferase values and % Luciferase activity was calculated by setting DMSO to 100%. *, p<0.0001 comparing CITCO+CINPA1 to CITCO treated cells.

[2] = human hepatocytes, 0.1 μM CITCO + 1 μM CINPA1, 45 min

## CCOC(=O)Nc1ccc2c(c1)N(C(=O)CN(CC)CC)c1ccccc1CC2 [CINPA1]
[1]; [2]
  CITCO-mediated recruitment of CAR and RNA polymerase II to XREM (dNR3) of the CYP2B6 promoter: effectively reduced
  CITCO-mediated recruitment of CAR and RNA polymerase II to XREM of the CYP3A4 promoter: also reduced
[1]; human primary hepatocytes, 3 donors, overnight, 1 μM CITCO or 5 μM CINPA1
  CAR recruitment to XREM (dNR3) of the CYP2B6 gene: prevents CAR recruitment
hCAR1
  CAR-mediated CYP3A4-luciferase activity: also seen in CAR-mediated CYP3A4-luciferase activity

— patent US9908890B2, “Selective inhibitors of constitutive androstane receptor” (ST. JUDE CHILDREN'S RESEARCH HOSPITAL, priority 2014, dated 2018)
